Test system: MV-4-11 cells
Assay: Gene expression microarray analysis (Affymetrix PrimeView) and GSEA
Assay type: cell-based, human
Design: RFU PODN (11730768_x_at) / Fold change /veh PODN (11730768_x_at) / RFU LINC00158 (11744669_a_at) / Fold change /veh LINC00158 (11744669_a_at) / RFU DUSP10 (11751237_a_at) / Fold change /veh DUSP10 (11751237_a_at) / RFU ID3 (11757404_x_at) / Fold change /veh ID3 (11757404_x_at) / RFU PLEKHG5 (11737974_s_at) / Fold change /veh PLEKHG5 (11737974_s_at) / RFU LRRC4B (11730491_at) / Fold change /veh LRRC4B (11730491_at) / RFU GIMAP4 (11747438_a_at) / Fold change /veh GIMAP4 (11747438_a_at) / RFU KRT8 (11758183_x_at) / Fold change /veh KRT8 (11758183_x_at) / RFU CNN1 (11734310_a_at) / Fold change /veh CNN1 (11734310_a_at) / RFU VPS37D (11726825_at) / Fold change /veh VPS37D (11726825_at) / RFU C10orf10 (11716522_x_at) / Fold change /veh C10orf10 (11716522_x_at) / RFU KIR2DL2 /// KIR2DL4 /// KIR2DL5A /// KIR2DL5B /// KIR2DS1 /// KIR2DS2 /// KIR2DS3 /// KIR2DS4 /// KIR3DL3 /// KIR3DL3 /// KIR3DS1 (11738374_at) / Fold change /veh KIR2DL2 /// KIR2DL4 /// KIR2DL5A /// KIR2DL5B /// KIR2DS1 /// KIR2DS2 /// KIR2DS3 /// KIR2DS4 /// KIR3DL3 /// KIR3DL3 /// KIR3DS1 (11738374_at) / RFU C1QL1 (11718748_at) / Fold change /veh C1QL1 (11718748_at) / RFU TMPRSS4 (11747572_a_at) / Fold change /veh TMPRSS4 (11747572_a_at) / RFU HAMP (11756126_x_at) / Fold change /veh HAMP (11756126_x_at) / RFU RNFT2 (11725882_a_at) / Fold change /veh RNFT2 (11725882_a_at) / RFU NR4A2 (11747474_a_at) / Fold change /veh NR4A2 (11747474_a_at) / RFU ABCC12 (11746883_a_at) / Fold change /veh ABCC12 (11746883_a_at) / RFU TMEM136 (11760407_x_at) / Fold change /veh TMEM136 (11760407_x_at) / RFU CLDN22 /// WWC2 (11732394_at) / Fold change /veh CLDN22 /// WWC2 (11732394_at) / RFU HLA-DPB1 (11760878_x_at) / Fold change /veh HLA-DPB1 (11760878_x_at) / RFU SPINT1 (11716480_a_at) / Fold change /veh SPINT1 (11716480_a_at) / RFU GAP43 (11754022_s_at) / Fold change /veh GAP43 (11754022_s_at) / RFU A4GNT (11735810_at) / Fold change /veh A4GNT (11735810_at) / RFU PRB3 (11715151_x_at) / Fold change /veh PRB3 (11715151_x_at) / RFU TUBB4B (11761932_at) / Fold change /veh TUBB4B (11761932_at) / RFU CAPN14 (11732068_a_at) / Fold change /veh CAPN14 (11732068_a_at) / RFU TMCC2 (11721928_a_at) / Fold change /veh TMCC2 (11721928_a_at) / RFU IRGQ (11745062_a_at) / Fold change /veh IRGQ (11745062_a_at) / RFU FAM174B (11720279_a_at) / Fold change /veh FAM174B (11720279_a_at) / RFU TMPRSS4 (11748680_a_at) / Fold change /veh TMPRSS4 (11748680_a_at) / RFU FAM212B (11763350_a_at) / Fold change /veh FAM212B (11763350_a_at) / RFU PLEKHG5 (11743358_a_at) / Fold change /veh PLEKHG5 (11743358_a_at) / RFU ZSCAN30 (11745921_a_at) / Fold change /veh ZSCAN30 (11745921_a_at) / RFU CMKLR1 (11741424_a_at) / Fold change /veh CMKLR1 (11741424_a_at) / RFU LOC101060620 /// MAPK8IP1 (11723275_at) / Fold change /veh LOC101060620 /// MAPK8IP1 (11723275_at) / RFU SPTSSB (11747773_x_at) / Fold change /veh SPTSSB (11747773_x_at) / RFU PRSS12 (11739890_at) / Fold change /veh PRSS12 (11739890_at) / RFU BIN1 (11741810_x_at) / Fold change /veh BIN1 (11741810_x_at) / RFU WNT11 (11732464_a_at) / Fold change /veh WNT11 (11732464_a_at) / RFU C10orf10 (11716521_a_at) / Fold change /veh C10orf10 (11716521_a_at) / RFU C5orf56 (11738089_at) / Fold change /veh C5orf56 (11738089_at) / RFU CYB561 (11721691_x_at) / Fold change /veh CYB561 (11721691_x_at) / RFU ANKRD19P (11752326_a_at) / Fold change /veh ANKRD19P (11752326_a_at) / RFU OR2T12 /// OR2T33 /// OR2T8 (11738714_s_at) / Fold change /veh OR2T12 /// OR2T33 /// OR2T8 (11738714_s_at) / RFU VCAN (11748164_a_at) / Fold change /veh VCAN (11748164_a_at) / RFU JSRP1 (11732532_at) / Fold change /veh JSRP1 (11732532_at) / RFU KRTAP10-11 (11738290_x_at) / Fold change /veh KRTAP10-11 (11738290_x_at) / RFU MYO3A (11730013_a_at) / Fold change /veh MYO3A (11730013_a_at) / RFU EBF3 (11725865_a_at) / Fold change /veh EBF3 (11725865_a_at) / RFU CAMK2N1 (11719241_x_at) / Fold change /veh CAMK2N1 (11719241_x_at) / RFU C5orf56 (11738088_a_at) / Fold change /veh C5orf56 (11738088_a_at) / RFU OLFML3 (11715873_a_at) / Fold change /veh OLFML3 (11715873_a_at) / RFU LOC100653217 /// NTM (11731650_a_at) / Fold change /veh LOC100653217 /// NTM (11731650_a_at) / RFU MAPK11 (11762145_a_at) / Fold change /veh MAPK11 (11762145_a_at) / RFU FIZ1 (11724087_x_at) / Fold change /veh FIZ1 (11724087_x_at) / RFU OASL (11726364_x_at) / Fold change /veh OASL (11726364_x_at) / RFU SOX15 (11748057_x_at) / Fold change /veh SOX15 (11748057_x_at) / RFU CD79A (11719716_a_at) / Fold change /veh CD79A (11719716_a_at) / RFU HIST1H1D (11736915_at) / Fold change /veh HIST1H1D (11736915_at) / RFU CASKIN2 (11723855_a_at) / Fold change /veh CASKIN2 (11723855_a_at) / RFU LOC730098 (11760151_x_at) / Fold change /veh LOC730098 (11760151_x_at) / RFU OR4N2 (11742367_at) / Fold change /veh OR4N2 (11742367_at) / RFU PRRT2 (11749266_a_at) / Fold change /veh PRRT2 (11749266_a_at) / RFU SNX32 (11753110_a_at) / Fold change /veh SNX32 (11753110_a_at) / RFU CDHR5 (11726645_a_at) / Fold change /veh CDHR5 (11726645_a_at) / RFU RCAN1 (11760418_a_at) / Fold change /veh RCAN1 (11760418_a_at) / RFU FAM167A (11723789_a_at) / Fold change /veh FAM167A (11723789_a_at) / RFU FAM26E (11764081_at) / Fold change /veh FAM26E (11764081_at) / RFU ISYNA1 (11749810_s_at) / Fold change /veh ISYNA1 (11749810_s_at) / RFU ACY1 (11761880_at) / Fold change /veh ACY1 (11761880_at) / RFU 11764098_at / Fold change /veh 11764098_at / RFU SAMD14 (11745864_x_at) / Fold change /veh SAMD14 (11745864_x_at) / RFU NPB (11741838_a_at) / Fold change /veh NPB (11741838_a_at) / RFU TMPRSS6 (11731388_a_at) / Fold change /veh TMPRSS6 (11731388_a_at) / RFU KRTAP10-2 (11738614_at) / Fold change /veh KRTAP10-2 (11738614_at) / RFU ARHGAP8 /// PRR5-ARHGAP8 (11727945_x_at) / Fold change /veh ARHGAP8 /// PRR5-ARHGAP8 (11727945_x_at) / RFU KRTAP5-7 /// NADSYN1 (11734609_at) / Fold change /veh KRTAP5-7 /// NADSYN1 (11734609_at) / RFU RASL12 (11751679_a_at) / Fold change /veh RASL12 (11751679_a_at) / RFU CDKN2B (11736163_a_at) / Fold change /veh CDKN2B (11736163_a_at) / RFU PRF1 (11729649_at) / Fold change /veh PRF1 (11729649_at) / RFU, ZNF638 /// ZNF638-IT1 / Fold change vs veh, ZNF638 /// ZNF638-IT1 / RFU, PANK3 / Fold change vs veh, PANK3 / RFU, SH3YL1 / Fold change vs veh, SH3YL1 / RFU, ZEB2 / Fold change vs veh, ZEB2 / RFU, NRIP1 / Fold change vs veh, NRIP1 / RFU, PTTG1IP / Fold change vs veh, PTTG1IP / RFU, CAPN2 / Fold change vs veh, CAPN2 / RFU, MED14 / Fold change vs veh, MED14 / RFU, SNORA58 / Fold change vs veh, SNORA58 / RFU, C1orf63 / Fold change vs veh, C1orf63 / RFU, LRRFIP1 / Fold change vs veh, LRRFIP1 / RFU, NDUFAF7 / Fold change vs veh, NDUFAF7 / RFU, SLC12A2 / Fold change vs veh, SLC12A2 / RFU, IBTK / Fold change vs veh, IBTK / RFU, ESF1 / Fold change vs veh, ESF1 / Fold change vs veh, TMEM50B / RFU, TAOK1 / Fold change vs veh, TAOK1 / RFU, ACBD3 / Fold change vs veh, ACBD3 / RFU, TMA16 / Fold change vs veh, TMA16 / RFU, RWDD3 / Fold change vs veh, RWDD3 / RFU, BCAT1 / Fold change vs veh, BCAT1 / RFU, EDEM3 / Fold change vs veh, EDEM3 / RFU, TMEM33 / Fold change vs veh, TMEM33 / RFU, WDR75 / Fold change vs veh, WDR75 / RFU, AHCTF1 / Fold change vs veh, AHCTF1 / RFU, TFRC / Fold change vs veh, TFRC / RFU, ZDHHC17 / Fold change vs veh, ZDHHC17 / RFU, NOM1 / Fold change vs veh, NOM1 / RFU, ARL8B / Fold change vs veh, ARL8B / RFU, ZBTB11 / Fold change vs veh, ZBTB11 / RFU, TAMM41 / Fold change vs veh, TAMM41 / RFU, KIAA1704 /// LOC100996395 / Fold change vs veh, KIAA1704 /// LOC100996395 / RFU, ING1 / Fold change vs veh, ING1 / RFU, TRMT61B / Fold change vs veh, TRMT61B / RFU, FUBP3 / Fold change vs veh, FUBP3 / RFU, TP53 / Fold change vs veh, TP53 / RFU, TNKS2 / Fold change vs veh, TNKS2 / RFU, ZFP14 / Fold change vs veh, ZFP14 / RFU, ACTR2 / Fold change vs veh, ACTR2 / RFU, PPP3R1 / Fold change vs veh, PPP3R1 / RFU, PIK3R1 / Fold change vs veh, PIK3R1 / RFU, HNRNPA1 / Fold change vs veh, HNRNPA1 / RFU, RNF170 / Fold change vs veh, RNF170 / RFU, ZNF28 / Fold change vs veh, ZNF28 / RFU, RNGTT / Fold change vs veh, RNGTT / RFU, OGT / Fold change vs veh, OGT / RFU, BRD1 / Fold change vs veh, BRD1 / RFU, MARS / Fold change vs veh, MARS / RFU, ZNF655 / Fold change vs veh, ZNF655 / RFU, FAHD1 / Fold change vs veh, FAHD1 / RFU, BDP1 / Fold change vs veh, BDP1 / RFU, LRRCC1 / Fold change vs veh, LRRCC1 / RFU, ARID1A / Fold change vs veh, ARID1A / RFU, ZNF146 / Fold change vs veh, ZNF146 / RFU, ZNF330 / Fold change vs veh, ZNF330 / RFU, GPN3 / Fold change vs veh, GPN3 / RFU, C9orf123 / Fold change vs veh, C9orf123 / RFU, N4BP2L2 / Fold change vs veh, N4BP2L2 / RFU, ARFIP1 / Fold change vs veh, ARFIP1 / RFU, FAM179B / Fold change vs veh, FAM179B / RFU, BCL10 / Fold change vs veh, BCL10 / RFU, UHRF1BP1L / Fold change vs veh, UHRF1BP1L / RFU, BET1 / Fold change vs veh, BET1 / RFU, CNOT2 / Fold change vs veh, CNOT2 / RFU, ZNF268 / Fold change vs veh, ZNF268 / Fold change vs veh, ZNF507 / RFU, DGCR2 / Fold change vs veh, DGCR2 / RFU, WDSUB1 / Fold change vs veh, WDSUB1 / Fold change vs veh, HSP90B1 /// MIR3652 / RFU, ADSS / Fold change vs veh, ADSS / RFU, GK / Fold change vs veh, GK / RFU, ZNF148 / Fold change vs veh, ZNF148 / RFU, TAF9 / Fold change vs veh, TAF9 / RFU, SLC1A5 / Fold change vs veh, SLC1A5 / RFU, SLMO2 / Fold change vs veh, SLMO2 / RFU, ABCC4 / Fold change vs veh, ABCC4 / RFU, LOC101060439 /// RAP1B / Fold change vs veh, LOC101060439 /// RAP1B / RFU, RFX7 / Fold change vs veh, RFX7 / RFU, GTPBP10 / Fold change vs veh, GTPBP10 / RFU, CNEP1R1 / Fold change vs veh, CNEP1R1 / RFU, BIVM-ERCC5 /// ERCC5 / Fold change vs veh, BIVM-ERCC5 /// ERCC5 / RFU, ILF3 / Fold change vs veh, ILF3 / RFU 11762660_at / Fold change /veh 11762660_at / RFU VCAN (11757783_s_at) / Fold change /veh VCAN (11757783_s_at) / RFU DDX43 (11728927_at) / Fold change /veh DDX43 (11728927_at) / RFU KRT8 (11758188_x_at) / Fold change /veh KRT8 (11758188_x_at) / RFU NKD1 (11759106_at) / Fold change /veh NKD1 (11759106_at) / RFU SRD5A1 (11742802_a_at) / Fold change /veh SRD5A1 (11742802_a_at) / RFU TPSAB1 /// TPSB2 (11721975_s_at) / Fold change /veh TPSAB1 /// TPSB2 (11721975_s_at) / RFU GSTM3 (11746129_a_at) / Fold change /veh GSTM3 (11746129_a_at) / RFU IL23R (11737362_x_at) / Fold change /veh IL23R (11737362_x_at) / RFU TMEM51 (11727254_a_at) / Fold change /veh TMEM51 (11727254_a_at) / RFU PIWIL2 (11732686_x_at) / Fold change /veh PIWIL2 (11732686_x_at) / RFU ORM1 (11744905_x_at) / Fold change /veh ORM1 (11744905_x_at) / RFU CCDC152 (11743942_at) / Fold change /veh CCDC152 (11743942_at) / RFU ECM1 (11717891_a_at) / Fold change /veh ECM1 (11717891_a_at) / RFU IL23R (11748794_a_at) / Fold change /veh IL23R (11748794_a_at) / RFU TNFAIP8L3 (11732012_x_at) / Fold change /veh TNFAIP8L3 (11732012_x_at) / RFU MBOAT4 (11741988_at) / Fold change /veh MBOAT4 (11741988_at) / RFU 11764193_at / Fold change /veh 11764193_at / RFU TMEM53 (11763286_at) / Fold change /veh TMEM53 (11763286_at) / RFU MAGEB2 (11727129_at) / Fold change /veh MAGEB2 (11727129_at) / RFU TMEM200A (11744735_a_at) / Fold change /veh TMEM200A (11744735_a_at) / RFU CCDC152 (11751479_a_at) / Fold change /veh CCDC152 (11751479_a_at) / RFU FAM211A (11726209_a_at) / Fold change /veh FAM211A (11726209_a_at) / RFU RGS16 (11746705_a_at) / Fold change /veh RGS16 (11746705_a_at) / RFU VCAN (11755009_s_at) / Fold change /veh VCAN (11755009_s_at) / RFU RHOB (11743442_s_at) / Fold change /veh RHOB (11743442_s_at) / RFU RGS16 (11720943_a_at) / Fold change /veh RGS16 (11720943_a_at) / RFU RGS16 (11720944_at) / Fold change /veh RGS16 (11720944_at) / RFU, VPS4B / Fold change vs veh, VPS4B / RFU, CREB1 / Fold change vs veh, CREB1 / RFU, DNAJC13 / Fold change vs veh, DNAJC13 / RFU, GNAQ / Fold change vs veh, GNAQ / RFU, CDK5R1 / Fold change vs veh, CDK5R1 / RFU, ZRANB3 / Fold change vs veh, ZRANB3 / RFU, CUL4A / Fold change vs veh, CUL4A / RFU, CCNY / Fold change vs veh, CCNY / RFU, UFL1 / Fold change vs veh, UFL1 / RFU, COG3 / Fold change vs veh, COG3 / RFU, DIAPH2 / Fold change vs veh, DIAPH2 / RFU, SKA2 / Fold change vs veh, SKA2 / RFU, AFF3 / Fold change vs veh, AFF3 / RFU, LMF1 / Fold change vs veh, LMF1 / RFU, IPO11 / Fold change vs veh, IPO11 / RFU, DFFB / Fold change vs veh, DFFB / RFU, FOXP1 / Fold change vs veh, FOXP1 / RFU, CARD8 / Fold change vs veh, CARD8 / RFU, STRN3 / Fold change vs veh, STRN3 / RFU, ADK / Fold change vs veh, ADK / RFU, RASSF2 / Fold change vs veh, RASSF2 / RFU, WIPF1 / Fold change vs veh, WIPF1 / RFU, LARP1B / Fold change vs veh, LARP1B / RFU, RASA1 / Fold change vs veh, RASA1 / RFU, RB1 / Fold change vs veh, RB1 / RFU, PPFIA1 / Fold change vs veh, PPFIA1 / RFU, MAT2A / Fold change vs veh, MAT2A / RFU, CCT5 / Fold change vs veh, CCT5 / RFU, WDR92 / Fold change vs veh, WDR92 / RFU, CUX1 / Fold change vs veh, CUX1 / RFU, TTC7A / Fold change vs veh, TTC7A / RFU, TMEM135 / Fold change vs veh, TMEM135 / RFU, DEPTOR / Fold change vs veh, DEPTOR / RFU, CPM / Fold change vs veh, CPM / RFU, DNAJB6 / Fold change vs veh, DNAJB6 / RFU, CACNA2D3 / Fold change vs veh, CACNA2D3 / RFU, DTX4 / Fold change vs veh, DTX4 / RFU, TFCP2 / Fold change vs veh, TFCP2 / RFU, GMCL1 /// GMCL1P1 / Fold change vs veh, GMCL1 /// GMCL1P1 / RFU, AEBP2 / Fold change vs veh, AEBP2 / RFU, SNHG1 /// SNORD22 /// SNORD25 /// SNORD26 /// SNORD27 /// SNORD28 /// SNORD29 /// SNORD31 / Fold change vs veh, SNHG1 /// SNORD22 /// SNORD25 /// SNORD26 /// SNORD27 /// SNORD28 /// SNORD29 /// SNORD31 / Fold change (Aza/veh), C12orf56 (ProbeSet 11735607_a_at) / Fold change (ACY-1035/veh), C12orf56 (ProbeSet 11735607_a_at) / Fold change (Aza/veh), FGFR1OP (ProbeSet 11751329_s_at) / Fold change (ACY-1035/veh), FGFR1OP (ProbeSet 11751329_s_at) / Fold change (Aza/veh), VPS36 (ProbeSet 11739960_a_at) / Fold change (ACY-1035/veh), VPS36 (ProbeSet 11739960_a_at) / RFU SYPL1 (11715823_x_at) / Fold change /veh SYPL1 (11715823_x_at) / RFU IGFBP7 (11715501_s_at) / Fold change /veh IGFBP7 (11715501_s_at) / RFU REEP3 (11722064_at) / Fold change /veh REEP3 (11722064_at) / RFU IGLL1 (11728026_x_at) / Fold change /veh IGLL1 (11728026_x_at): dose or concentration left out as unconfirmed
Conditions: ProbeSet 11740528_a_at; LIST D

`Nc1ccc(-c2cccs2)cc1NC(=O)c1ccc2c(c1)cc(C1CC1)n2CCN1CCOCC1` [ACY-1035] was tested, and the “Fold change vs veh, AFF3” value was 0.95.

From PMC5218480 (PLoS ONE, 2017)
